IC50 data for twelve compounds are collected here from US20070149508A1, “Six membered heteroaromatic inhibitors targeting resistant kinase mutations” (TargeGen, Inc., priority 2005, published 2007).

As a reminder, the IC50 is the concentration that gives 50% inhibition.

In one experiment the target is T1, Abl (T315I) (Homo sapiens, UniProt P00519, T315I).
T1 construct: purchased Upstate
Kind of experiment: Abl (T315I) Kinase Assay (KinaseGlo luminescent detection of residual ATP). Type of experiment: biochemical. As to conditions: Abl (T315I) IC50 (nM), Abl (T315I) (Upstate, 17 ng/well), Abltide 100 uM, ATP 500 nM, 60 minutes at 37° C. As to the method: The assay was performed similarly to the Abl kinase assay. Abl (T315I) (Upstate, 17 ng/well); Abltide substrate (100 uM) and ATP (500 nM) comprised the reaction mixture. Compound was similarly diluted, and the reaction plate was incubated for 60 minutes at 37° C.
On the technique in general: Kinase-Glo reads ATP consumption through a luciferase reaction.

For another experiment, the target named is Abl kinase (Homo sapiens, UniProt P00519). Kind of experiment: biochemical. As to conditions: Abl IC50 (nM), Abl kinase (Invitrogen, 20 ng/well), Abltide 100 μM, ATP 500 nM, 37° C. for 60 minutes, top concentration 10 uM.

Counter-ions that a name gives are not always drawn.

Take `Cc1nc(Nc2ccc(S(=O)(=O)C3CCNCC3)cc2)ncc1/C=C/c1cccc(O)c1` [3-((E)-2-(2-(4-(piperidin-4-ylsulfonyl)phenylamino)-4-methylpyrimidin-5-yl)vinyl)phenol hydrochloride]: the IC50 was 65 nM at Abl (T315I) and 10 nM at Abl kinase.

In the case of `Nc1nc2ccc(/C=C/c3cnc(Nc4ccc(S(=O)(=O)N5CCCNCC5)cc4F)nc3)cc2s1` [(E)-6-(2-(2-(4-(1,4-diazepan-1-ylsulfonyl)-2-fluorophenylamino)pyrimidin-5-yl)vinyl)benzo[d]thiazol-2-amine hydrochloride], the IC50 is 6980 nM on Abl (T315I) and 10800 nM at Abl kinase. For `Nc1nc2c(/C=C/c3cnc(Nc4ccc(S(=O)(=O)C5CCNCC5)cc4)nc3)cccc2s1` [4-((E)-2-(2-(4-(piperidin-4-ylsulfonyl)phenylamino)pyrimidin-5-yl)vinyl)benzo[d]thiazol-2-amine Hydrochloride], the IC50 against Abl (T315I) came to 394 nM; against Abl kinase it was 39 nM. For `O=S(=O)(c1ccc(Nc2ncc(/C=C/c3cccc(O)c3)cn2)c(C(F)(F)F)c1)N1CCNCC1` [3-(2-{2-[4-(Piperazine-1-sulfonyl)-2-trifluoromethyl-phenylamino]-pyrimidin-5-yl}-vinyl)-phenol], the IC50 on Abl (T315I) stood at 1.53e+06 nM; against Abl kinase, 44700 nM. In the case of `O=S(=O)(c1ccc(Nc2ncc(/C=C/c3cccc(O)c3)cn2)cc1)N1CCNCC1` [3-(2-{2-[4-(Piperazine-1-sulfonyl)-phenylamino]-pyrimidin-5-yl}-vinyl)-phenol], the IC50 was 37 nM against Abl (T315I) and 4.1 nM against Abl kinase.

As to `O=C(Nc1nc2ccc(/C=C/c3cnc(Nc4ccc(S(=O)(=O)N5CCNCC5)cc4)nc3)cc2s1)c1cccc(C(F)(F)F)c1` [N-[6-(2-{2-[4-(Piperazine-1-sulfonyl)-phenylamino]-pyrimidin-5-yl]-vinyl)-benzothiazol-2-yI]-3-trifluoromethyl-benzamide], the results for the IC50 on Abl (T315I) and against Abl kinase were 5600 nM and 5110 nM, respectively. For `Nc1nc2ccc(/C=C/c3cnc(Nc4ccc(S(=O)(=O)C5CCCNCC5)cc4)nc3)cc2s1` (centres unmarked) [6-(2-{2-[4-(Azepane-4-sulfonyl)-phenylamino]-pyrimidin-5-yl}-vinyl)-benzothiazol-2-ylamine], the results for the IC50 at Abl (T315I) and at Abl kinase were 14 nM and 27 nM, respectively. Turning to `Nc1cccc(/C=C/c2cnc(Nc3ccc(S(=O)(=O)C4CCNCC4)cc3)nc2)c1` [15-(3-aminostyryl)-N-(4-(piperidin-4-ylsulfonyl)phenyl)pyrimidin-2-amine Hydrochloride], the half-maximal inhibitory concentration (IC50) against Abl (T315I) turned out to be 561 nM; at Abl kinase it was 31 nM. Taken in the same sequence, the figures for `CCNC(=O)N1CCC(S(=O)(=O)c2ccc(Nc3ncc(/C=C/c4ccc5nc(N)sc5c4)cn3)cc2)CC1` [4-(4-{5-[2-(2-Amino-benzothiazol-6-yl)-vinyl]-benzenesulfonyl)-piperidine-pyrimidin-2-ylamino)-1-carboxylic acid ethylamide] were 237 nM and 233 nM.

Consider `COc1cccc(/C=C/c2cnc(Nc3ccc(S(=O)(=O)C4CCNCC4)cc3)nc2)c1` [{5-[2-(3-Methoxy-phenyl)-vinyl]-pyrimidin-2-yl}-[4-piperidine-4-sulfonyl)-phenyl]-amine], for which the half-maximal inhibitory concentration (IC50) against Abl (T315I) is 664 nM; against Abl kinase it was 172 nM. Take `O=S(=O)(NC1CCNCC1)c1ccc(Nc2ncc(/C=C/c3cccc4[nH]ccc34)cn2)cc1` [4-{5-[2-(1H-Indol-4-yl)-vinyl]-pyrimidin-2-ylamino}-N-piperidin-4-yl-benzenesulfonamide]: the IC50 against Abl (T315I) worked out at 282 nM; against Abl kinase, 12 nM. `OCCN1CCN(c2cccc(Nc3ncc(/C=C/c4cccc5[nH]ccc45)cn3)c2)CC1` [2-(4-(3-(5-((E)-2-(1H-indol-4-yl)vinyl)pyrimidin-2-ylamino)phenyl)piperazin-1-yl)ethanol Hydrochloride] registered an IC50 against Abl kinase of 178 nM.
